Measurements reported in PubChem BioAssay AID330 (DTP/NCI, 2004).
Values joined by “and” are separate entries in the source; they are usually repeats but may differ in a detail not shown here. Equal entries are not always repeated. Toxic doses and inconclusive results are not listed. Rule for the calls: active = survival T/C of 150% or more; inactive = T/C below 125% in these data.

Tested on: P388 leukemia ip, CD2F1 mice, survival T/C
Assay: NCI In Vivo Anticancer Drug Screen. Data for tumor model P388 Leukemia (intraperitoneal) in CD2F1 (CDF1) mice
Settings: endpoint: median survival time, higher = longer survival
How it was run: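 Mice carrying the transplanted tumor received test compound or vehicle. Survival was recorded in each group, and the value is the treated-group measurement divided by that of the vehicle-treated control group.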

[1] = dose: 12.5 mg/kg/injection, schedule: Q01DX009 (ip), vehicle: saline with Tween-80
[2] = dose: 25.0 mg/kg/injection, schedule: Q01DX009 (ip), vehicle: saline with Tween-80
[3] = dose: 50.0 mg/kg/injection, schedule: Q01DX009 (ip), vehicle: saline with Tween-80
[4] = dose: 100.0 mg/kg/injection, schedule: Q01DX009 (ip), vehicle: saline with Tween-80
[5] = dose: 50.0 mg/kg/injection, schedule: Q04DX003 (ip), vehicle: saline with Tween-80
[6] = dose: 100.0 mg/kg/injection, schedule: Q04DX003 (ip), vehicle: saline with Tween-80

Measured: T/C

CCOC(=O)Nc1cc2c(c(N)n1)N=C(c1ccc(Cl)cc1)CN2
inactive: dose: 1.5 mg/kg/injection, schedule: Q01DX009 (ip), vehicle: Klucel (hydroxypropylcellulose) (HPC) 92 % of control | dose: 3.0 mg/kg/injection, schedule: Q01DX009 (ip), vehicle: Klucel (hydroxypropylcellulose) (HPC) 111 % of control | dose: 12.0 mg/kg/injection, schedule: Q01DX009 (ip), vehicle: Klucel (hydroxypropylcellulose) (HPC) 95 % of control | dose: 12.5 mg/kg/injection, schedule: Q01DX009 (ip), vehicle: Klucel (hydroxypropylcellulose) (HPC) 86 % of control | dose: 50.0 mg/kg/injection, schedule: Q04DX003 (ip), vehicle: Klucel (hydroxypropylcellulose) (HPC) 101 % of control

CC12CCC3c4ccc(OP(=O)(N5CC5)N5CC5)cc4CCC3C1CCC2O (centres undefined)
inactive: [1] 96 % of control and 97 % of control | [2] 110 % of control and 96 % of control | [3] 100 % of control and 92 % of control | [4] 115 % of control

CCCc1c(Cl)nc(Cl)nc1Cl
inactive: [2] 104 % of control | dose: 25.0 mg/kg/injection, schedule: Q04DX003 (ip), vehicle: saline with Tween-80 113 % of control | [3] 118 % of control | [5] 121 % of control | dose: 66.0 mg/kg/injection, schedule: Q01DX009 (ip), vehicle: saline with Tween-80 116 % of control | [4] 100 % of control | [6] 113 % of control

CC(=O)OCn1cc2c3c(cccc31)C1CC(C)CN(C)C1C2 (centres undefined)
inactive: dose: 12.5 mg/kg/injection, schedule: Q01DX005 (ip), vehicle: saline with Tween-80 98 % of control | dose: 25.0 mg/kg/injection, schedule: Q01DX005 (ip), vehicle: saline with Tween-80 106 % of control | dose: 50.0 mg/kg/injection, schedule: Q01DX005 (ip), vehicle: saline with Tween-80 100 % of control

COc1ccc(S(=O)(=O)O)cc1NS(=O)(=O)c1ccc(C)cc1
inactive: dose: 60.0 mg/kg/injection, schedule: Q01DX005 (ip), vehicle: saline 102 % of control | dose: 120.0 mg/kg/injection, schedule: Q01DX005 (ip), vehicle: saline 98 % of control | dose: 240.0 mg/kg/injection, schedule: Q01DX005 (ip), vehicle: saline 103 % of control

COc1ccccc1/C=N/Nc1ccc2ccccc2n1
inactive: [5] 93 % of control | [6] 90 % of control | dose: 200.0 mg/kg/injection, schedule: Q04DX003 (ip), vehicle: saline with Tween-80 90 % of control

COc1cc(Cl)c(CC(=O)c2c[nH]c3ccccc23)cc1OC
inactive: dose: 6.25 mg/kg/injection, schedule: Q01DX009 (ip), vehicle: saline with Tween-80 94 % of control | [1] 92 % of control | [2] 100 % of control | [3] 93 % of control
